Assay results reported in patent US20250206729A1, “DUAL RAF AND TUBULIN INHIBITORS AND METHODS OF USE THEREOF” (Deciphera Pharmaceuticals, LLC, priority 2023, published 2025).
Read-outs that look alike come from different tables or passages of the source.

How the values were obtained:
[1] = molecular target: T1, C-Raf kinase (SEQ ID NO: 2) (Homo sapiens, UniProt P04049, Y340D/Y341D); test: Biochemical assay for C-Raf (coupled pyruvate kinase/lactate dehydrogenase)
T1 construct: C-Raf residues 306-end; Y340D, Y341D with N-; GST (N); purchased Sigma
T1 sequence (P04049 307-648 Y340D/Y341D): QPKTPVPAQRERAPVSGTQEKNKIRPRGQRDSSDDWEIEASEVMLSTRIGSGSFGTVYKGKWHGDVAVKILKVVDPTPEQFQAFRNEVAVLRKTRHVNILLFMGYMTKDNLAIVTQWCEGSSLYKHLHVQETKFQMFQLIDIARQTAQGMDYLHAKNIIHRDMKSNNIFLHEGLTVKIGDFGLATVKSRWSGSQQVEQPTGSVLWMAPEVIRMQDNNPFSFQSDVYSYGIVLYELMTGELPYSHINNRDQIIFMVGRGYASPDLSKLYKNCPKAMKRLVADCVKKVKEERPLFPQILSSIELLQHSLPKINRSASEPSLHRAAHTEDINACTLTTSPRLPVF

[2] = molecular target: T2, B-Raf kinase (SEQ ID NO: 1) (Homo sapiens, UniProt P15056); test: Biochemical assay for B-Raf (coupled pyruvate kinase/lactate dehydrogenase)
T2 construct: GST (N); purchased Sigma
T2 sequence (P15056 416-766): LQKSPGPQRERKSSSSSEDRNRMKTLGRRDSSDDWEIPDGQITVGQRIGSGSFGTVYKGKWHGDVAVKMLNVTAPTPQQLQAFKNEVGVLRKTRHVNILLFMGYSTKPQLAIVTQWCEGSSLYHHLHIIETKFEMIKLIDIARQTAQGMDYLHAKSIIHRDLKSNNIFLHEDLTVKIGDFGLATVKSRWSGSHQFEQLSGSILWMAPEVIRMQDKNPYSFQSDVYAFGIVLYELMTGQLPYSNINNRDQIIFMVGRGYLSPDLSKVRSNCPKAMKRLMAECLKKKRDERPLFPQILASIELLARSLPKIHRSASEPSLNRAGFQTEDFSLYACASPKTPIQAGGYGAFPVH

[3] = test system: tubulin polymerization in HCT-116 cells; test: Cellular tubulin polymerization assay (HCT-116 cells); type: cell-based; details: HCT-116 cells, read-out: Tubulin Cellular
Procedure: HCT-116 cells (catalog #CCL-247) are obtained from the American Type Culture Collect (ATCC, Manassas, VA). Briefly, cells are grown in McCoy's 5A supplemented with 10% characterized fetal bovine serum (Invitrogen, Carlsbad, CA) and 1% Penicillin/Streptomycin/L-Glutamine at 37° C., 5% CO2, and 95% humidity. Cells are expanded until reaching 70-95% confluency at which point they are sub-cultured or harvested for assay use. 450000 cells are added per well in 1500 μL complete growth medium in a tissue culture treated, 12-well plate. Plates are incubated for 18 to 24 h at 37° C., 5% CO2, and 95% humidity. At the end of the incubation, 2000 μL of base culture media is added to each well, followed by a serial dilution of compound. Plates are incubated for an additional 1 h at 37° C., 5% CO2, and 95% humidity. Lysates are generated by the addition of 100 μL Lysis and Microtubule Stabilization Buffer 1 (LMSO1, Cytoskeleton Inc, Denver, CO) supplemented with GTP (BST06, Cytoskeleton Inc), ATP (BSA04, Cytoskeleton Inc), and Protease Inhibitor Cocktail Stock (PIC02, Cytoskeleton Inc). Cells are scraped off wells using a rubber cell scraper and collected in a clean 96-well plate. Lysates are centrifuged at 1000× g, 37° C. for 10 min and supernatant fraction is placed into an additional 96-well plate. The remaining pellet fraction is reconstituted in 100 μL LMS01 buffer and sonicated for 10 min. Pellet and Supernatant fractions are probed for α-tubulin via western blot analysis on the Jess System or equivalent (Bio-techne, Minneapolis, MN). Data is analyzed using Prism software (Graphpad, San Diego, CA) to calculate IC50 values.

MiaPaca-2 cells = test: MiaPaca-2 cell proliferation assay; type: cell-based; details: Homo sapiens, MIA PaCa-2
HPAF-II cells = test: HPAF-II cell proliferation assay; type: cell-based; details: Homo sapiens
HCT-116 cells = test: HCT-116 cell proliferation assay; type: cell-based; details: Homo sapiens
Pa16c cells = test: Pa16c cell proliferation assay; type: cell-based; details: 67 to 72 h incubation, resazurin; read-out: Pa16c (inhibition of cell proliferation, IC50)
[4] = Table 4, mutant KRAS pancreatic cancer cell line, anti-proliferative, read-out: MiaPaca-2
[5] = Table 4, mutant KRAS pancreatic cancer cell line, anti-proliferative, read-out: HPAF-II
[6] = Table 4, mutant KRAS colorectal cancer cell line, anti-proliferative, read-out: HCT-116
[7] = 1 mM ATP, read-out: CRAF (inhibition of biochemical activity, IC50)
[8] = 1 mM ATP, read-out: BRAF (inhibition of biochemical activity, IC50)
[9] = 67-72 h incubation, resazurin, read-out: MiaPaca-2 (inhibition of cell proliferation, IC50)
[10] = Table 3, mutant KRAS pancreatic cancer cell line, anti-proliferative, read-out: MiaPaca-2
[11] = HPAF-II, 115 to 120 h incubation, resazurin, read-out: HPAF-II (inhibition of cell proliferation, IC50)
[12] = Table 3, mutant KRAS pancreatic cancer cell line, anti-proliferative, read-out: HPAF-II
[13] = HCT-116, 67 to 72 h incubation, resazurin, read-out: HCT-116 (inhibition of cell proliferation, IC50)
[14] = Table 3, mutant KRAS colorectal cancer cell line, anti-proliferative, read-out: HCT-116

| Compound | IC50 ([1]; Table 4, read-out: CRAF) | IC50 ([2]; Table 4, read-out: BRAF) | IC50 ([3]; Table 4) | IC50 (MiaPaca-2 cells; [4]) | IC50 (HPAF-II cells; [5]) | IC50 (HCT-116 cells; [6]) | IC50 [1, 7] | IC50 ([1]; Table 3, read-out: CRAF) | IC50 [2, 8] | IC50 ([2]; Table 3, read-out: BRAF) | IC50 ([3]; Table 3) | IC50 (Pa16c cells) | IC50 (MiaPaca-2 cells; [9]) | IC50 (MiaPaca-2 cells; [10]) | IC50 (HPAF-II cells; [11]) | IC50 (HPAF-II cells; [12]) | IC50 (HCT-116 cells; [13]) | IC50 (HCT-116 cells; [14]) |
| --- | --- | --- | --- | --- | --- | --- | --- | --- | --- | --- | --- | --- | --- | --- | --- | --- | --- | --- |
| Cc1ccc2c(Nc3cccc(Cl)c3F)nccc2c1NC(=O)c1csc2c(N)ncnc12 [Belvarafenib, reference compound] | < 100 nM | < 100 nM | 1000 to 10000 nM | 1000 to 10000 nM | 1000 to 10000 nM | 500 to 1000 nM | – | – | – | – | – | – | – | – | – | – | – | – |
| Cc1ccc(NC(=O)c2cc(C(F)(F)F)cnn2)cc1-c1cc(OCCO)nc(N2CCOCC2)c1 [Example 6] | – | – | – | – | – | – | < 100 nM | < 100 nM | < 100 nM | < 100 nM | < 100 nM | < 100 nM | < 100 nM | < 100 nM | < 100 nM | < 100 nM | < 100 nM | < 100 nM |
| Cc1ccc(NC(=O)c2cc(C(C)C)cnn2)cc1-c1cc(N[C@H](C)CO)nc(N2CCOCC2)c1 [Example 14] | – | – | – | – | – | – | < 100 nM | < 100 nM | < 100 nM | < 100 nM | < 100 nM | 1000 to 10000 nM | 100 to 500 nM | 100 to 500 nM | 100 to 500 nM | 100 to 500 nM | 100 to 500 nM | 100 to 500 nM |
| Cc1ccc(NC(=O)c2cc(C(F)(F)F)cnn2)cc1-c1cc(N[C@H](C)CO)nc(N2CCOCC2)c1 [Example 19] | – | – | – | – | – | – | < 100 nM | < 100 nM | < 100 nM | < 100 nM | < 100 nM | < 100 nM | < 100 nM | < 100 nM | < 100 nM | < 100 nM | < 100 nM | < 100 nM |
| Cc1ccc(NC(=O)c2cc(C(F)(F)F)cnn2)cc1-c1cncc(N2CCOCC2)c1 [Example 27] | – | – | – | – | – | – | < 100 nM | < 100 nM | 100 to 500 nM | 100 to 500 nM | 100 to 500 nM | 100 to 500 nM | < 100 nM | < 100 nM | 100 to 500 nM | 100 to 500 nM | 100 to 500 nM | 100 to 500 nM |
| Cc1ccc(NC(=O)c2cc(C(F)(F)F)cnn2)cc1-c1ccnc(N2CCOCC2)n1 [Example 29] | – | – | – | – | – | – | 1000 to 10000 nM | 1000 to 10000 nM | 1000 to 10000 nM | 1000 to 10000 nM | < 100 nM | 100 to 500 nM | < 100 nM | < 100 nM | 100 to 500 nM | 100 to 500 nM | 100 to 500 nM | 100 to 500 nM |
| Cc1ccc(NC(=O)c2cc(C(C)(C)F)cnn2)cc1-c1cc(OCCO)nc(N2CCOCC2)c1 [Example 34] | – | – | – | – | – | – | < 100 nM | < 100 nM | < 100 nM | < 100 nM | 100 to 500 nM | < 100 nM | < 100 nM | < 100 nM | < 100 nM | < 100 nM | < 100 nM | < 100 nM |
| Cc1ccc(NC(=O)c2cc(C3CC3)cnn2)cc1-c1ccnc(N2C[C@H]3C[C@@H]2CO3)c1 [Example 88] | – | – | – | – | – | – | < 100 nM | – | 100 to 500 nM | – | – | < 100 nM | < 100 nM | – | < 100 nM | – | < 100 nM | – |
| Cc1ccc(NC(=O)c2cc(C3CC3)cnn2)cc1-c1ccnc(N2C[C@@H]3C[C@H]2CO3)c1 [Example 89] | – | – | – | – | – | – | 1000 to 10000 nM | – | 100 to 500 nM | – | – | < 100 nM | < 100 nM | – | < 100 nM | – | < 100 nM | – |
| Cc1ccc(NC(=O)c2cc(C(F)(F)F)cnn2)cc1-c1nc(N[C@H](C)CO)cc(N2C[C@H]3C[C@@H]2CO3)n1 [Example 90] | – | – | – | – | – | – | 1000 to 10000 nM | – | 1000 to 10000 nM | – | – | 1000 to 10000 nM | 100 to 500 nM | – | 500 to 1000 nM | – | 100 to 500 nM | – |
| CNc1cc(N2C[C@H]3C[C@@H]2CO3)nc(-c2cc(NC(=O)c3cc(C(F)(F)F)cnn3)ccc2C)n1 [Example 91] | – | – | – | – | – | – | 1000 to 10000 nM | – | 1000 to 10000 nM | – | – | 1000 to 10000 nM | 500 to 1000 nM | – | 1000 to 10000 nM | – | 1000 to 10000 nM | – |
| CNc1cc(-c2cc(NC(=O)c3cc(C(F)(F)F)cnn3)ccc2C)cc(N2C[C@H]3C[C@@H]2CO3)n1 [Example 92] | – | – | – | – | – | – | 100 to 500 nM | – | 100 to 500 nM | – | – | < 100 nM | < 100 nM | – | < 100 nM | – | < 100 nM | – |
| Cc1ccc(NC(=O)c2cc(C(F)(F)F)cnn2)cc1-c1cc(N[C@H](C)CO)nc(N2C[C@H]3C[C@@H]2CO3)c1 [Example 93] | – | – | – | – | – | – | 100 to 500 nM | – | 100 to 500 nM | – | – | < 100 nM | < 100 nM | – | < 100 nM | – | < 100 nM | – |
| CNc1cc(-c2cc(NC(=O)c3cc(C(F)(F)F)cnn3)ccc2C)nc(N2C[C@H]3C[C@@H]2CO3)n1 [Example 94] | – | – | – | – | – | – | 1000 to 10000 nM | – | 1000 to 10000 nM | – | – | < 100 nM | < 100 nM | – | < 100 nM | – | < 100 nM | – |
| Cc1ccc(NC(=O)N2CC[C@@H](CC(F)(F)F)C2)cc1-c1cc(N[C@H](C)CO)nc(N2CCOCC2)c1 [Exarafenib, reference compound] | – | – | 1000 to 10000 nM | 1000 to 10000 nM | 1000 to 10000 nM | 500 to 1000 nM | – | – | – | – | – | – | – | – | – | – | – | – |
| Cc1ccc(NC(=O)c2ccnc(C(F)(F)F)c2)cc1-c1cc(OCCO)nc(N2CCOCC2)c1 [Naporafenib, reference compound] | < 100 nM | < 100 nM | 1000 to 10000 nM | 1000 to 10000 nM | 1000 to 10000 nM | 1000 to 10000 nM | – | – | – | – | – | – | – | – | – | – | – | – |
| C[C@@H](NC(=O)c1ncnc(N)c1Cl)c1ncc(C(=O)Nc2cc(C(F)(F)F)c(Cl)cn2)s1 [Tovorafenib, reference compound] | – | – | 1000 to 10000 nM | 1000 to 10000 nM | 1000 to 10000 nM | 1000 to 10000 nM | – | – | – | – | – | – | – | – | – | – | – | – |
